Results as given in article PMC6781469 (Journal of Enzyme Inhibition and Medicinal Chemistry, 2019).
Where two headings read alike, the source gives them in different places.

Columns and labels:
[1] = target: FMS (Homo sapiens, UniProt P07333); test: Reaction Biology Kinase HotSpot kinase assay, FMS
[2] = target: RAF1 (Homo sapiens, UniProt P04049); test: kinase panel screen, RAF1; details: read-out: % Inhibition RAF1
[3] = target: T1, FLT3 (ITD) (Homo sapiens, UniProt P36888, ITD); test: kinase panel screen, FLT3 (ITD); details: read-out: % Inhibition FLT3 (ITD)
T1 sequence (P36888 564-993): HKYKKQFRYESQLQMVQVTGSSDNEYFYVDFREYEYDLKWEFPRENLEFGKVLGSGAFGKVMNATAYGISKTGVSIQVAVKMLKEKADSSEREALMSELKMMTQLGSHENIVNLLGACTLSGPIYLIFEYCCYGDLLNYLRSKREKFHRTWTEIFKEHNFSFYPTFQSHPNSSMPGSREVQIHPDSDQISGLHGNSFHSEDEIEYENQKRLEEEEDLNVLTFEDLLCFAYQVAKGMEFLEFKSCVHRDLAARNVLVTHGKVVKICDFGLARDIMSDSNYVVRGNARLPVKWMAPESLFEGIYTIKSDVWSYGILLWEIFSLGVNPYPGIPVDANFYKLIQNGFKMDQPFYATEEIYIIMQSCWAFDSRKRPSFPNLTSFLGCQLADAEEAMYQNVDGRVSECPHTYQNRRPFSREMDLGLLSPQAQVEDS

[4] = target: T2, FLT3(h) (Homo sapiens, UniProt P36888); test: Reaction Biology Kinase HotSpot radiometric kinase assay, FLT3; details: for times more potent than 5f against FLT3: ratio of FLT3 IC50 versus 5f
T2 sequence (P36888 27-993): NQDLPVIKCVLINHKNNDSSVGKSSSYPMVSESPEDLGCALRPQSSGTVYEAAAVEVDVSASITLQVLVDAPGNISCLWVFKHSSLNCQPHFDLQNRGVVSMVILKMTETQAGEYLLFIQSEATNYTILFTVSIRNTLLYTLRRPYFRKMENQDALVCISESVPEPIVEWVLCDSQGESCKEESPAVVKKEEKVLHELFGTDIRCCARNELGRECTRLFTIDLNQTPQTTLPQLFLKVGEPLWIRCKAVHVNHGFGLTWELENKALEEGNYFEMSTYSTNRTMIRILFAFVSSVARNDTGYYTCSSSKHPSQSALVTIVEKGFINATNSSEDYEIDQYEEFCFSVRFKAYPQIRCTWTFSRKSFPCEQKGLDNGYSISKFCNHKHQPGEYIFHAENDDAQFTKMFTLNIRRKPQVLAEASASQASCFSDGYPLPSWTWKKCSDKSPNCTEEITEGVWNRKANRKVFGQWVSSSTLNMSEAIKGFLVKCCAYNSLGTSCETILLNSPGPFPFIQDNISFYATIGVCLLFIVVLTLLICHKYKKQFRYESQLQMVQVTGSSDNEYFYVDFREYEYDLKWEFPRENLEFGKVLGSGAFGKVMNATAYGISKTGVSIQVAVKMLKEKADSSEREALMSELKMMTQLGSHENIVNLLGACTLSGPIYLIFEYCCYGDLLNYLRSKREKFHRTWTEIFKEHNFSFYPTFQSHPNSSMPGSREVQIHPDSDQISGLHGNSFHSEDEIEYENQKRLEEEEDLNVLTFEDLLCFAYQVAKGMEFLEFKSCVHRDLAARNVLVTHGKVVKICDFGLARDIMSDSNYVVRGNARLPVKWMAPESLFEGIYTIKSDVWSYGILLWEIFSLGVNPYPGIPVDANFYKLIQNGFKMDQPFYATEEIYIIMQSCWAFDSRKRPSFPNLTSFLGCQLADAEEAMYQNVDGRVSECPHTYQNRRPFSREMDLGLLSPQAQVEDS

[5] = system: KIT; set-up: method as in earlier work; details: competitive-binding assays in vitro; read-out: IC50 against KIT; cited from earlier work
[6] = system: FLT-3; set-up: method as in earlier work; details: competitive-binding assays in vitro; read-out: IC50 against FLT-3; cited from earlier work

FMS, sequence (P07333 20-972): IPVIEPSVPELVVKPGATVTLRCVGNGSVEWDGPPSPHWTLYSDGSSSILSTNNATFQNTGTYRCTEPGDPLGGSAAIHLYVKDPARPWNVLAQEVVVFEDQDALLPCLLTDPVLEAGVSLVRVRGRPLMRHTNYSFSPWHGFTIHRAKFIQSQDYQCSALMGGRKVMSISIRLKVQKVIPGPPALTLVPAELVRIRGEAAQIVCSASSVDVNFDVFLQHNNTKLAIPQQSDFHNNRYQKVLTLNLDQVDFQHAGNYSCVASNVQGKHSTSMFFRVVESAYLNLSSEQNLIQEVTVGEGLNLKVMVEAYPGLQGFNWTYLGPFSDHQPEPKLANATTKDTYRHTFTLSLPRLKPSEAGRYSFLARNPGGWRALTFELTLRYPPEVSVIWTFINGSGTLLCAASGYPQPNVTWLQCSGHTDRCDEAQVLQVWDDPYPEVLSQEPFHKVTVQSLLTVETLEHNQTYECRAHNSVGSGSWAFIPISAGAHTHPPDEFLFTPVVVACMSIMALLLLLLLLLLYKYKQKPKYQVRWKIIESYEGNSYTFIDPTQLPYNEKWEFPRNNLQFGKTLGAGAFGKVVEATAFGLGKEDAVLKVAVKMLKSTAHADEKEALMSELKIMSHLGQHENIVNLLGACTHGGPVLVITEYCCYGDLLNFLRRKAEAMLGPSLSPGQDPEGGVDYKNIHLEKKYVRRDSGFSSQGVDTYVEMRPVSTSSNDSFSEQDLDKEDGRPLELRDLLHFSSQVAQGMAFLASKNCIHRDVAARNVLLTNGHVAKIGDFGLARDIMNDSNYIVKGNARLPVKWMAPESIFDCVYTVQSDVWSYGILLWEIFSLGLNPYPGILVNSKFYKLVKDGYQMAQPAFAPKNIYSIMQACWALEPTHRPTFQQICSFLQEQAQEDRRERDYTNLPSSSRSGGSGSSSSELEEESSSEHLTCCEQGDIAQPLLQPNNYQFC
RAF1, sequence (P04049 whole entry): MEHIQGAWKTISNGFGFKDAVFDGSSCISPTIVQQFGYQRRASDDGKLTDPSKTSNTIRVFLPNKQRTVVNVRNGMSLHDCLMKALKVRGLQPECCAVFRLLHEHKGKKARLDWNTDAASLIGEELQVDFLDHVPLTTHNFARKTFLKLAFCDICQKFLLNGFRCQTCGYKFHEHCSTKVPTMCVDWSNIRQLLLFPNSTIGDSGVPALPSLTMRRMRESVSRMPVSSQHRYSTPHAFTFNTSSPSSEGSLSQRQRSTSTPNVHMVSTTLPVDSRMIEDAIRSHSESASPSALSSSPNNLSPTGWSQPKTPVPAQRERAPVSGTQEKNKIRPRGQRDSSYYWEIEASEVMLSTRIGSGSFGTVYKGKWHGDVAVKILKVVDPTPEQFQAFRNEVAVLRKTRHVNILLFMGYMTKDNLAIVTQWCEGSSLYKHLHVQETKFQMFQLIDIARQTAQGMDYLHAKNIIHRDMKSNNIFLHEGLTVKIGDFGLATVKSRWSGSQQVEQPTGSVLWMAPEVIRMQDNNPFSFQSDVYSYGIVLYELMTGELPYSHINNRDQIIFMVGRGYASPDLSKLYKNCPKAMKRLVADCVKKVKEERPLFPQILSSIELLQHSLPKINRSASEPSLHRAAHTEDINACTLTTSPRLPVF

SMILES: Cc1oncc1C(=O)Nc1ccc2nc(-c3cc(N4CCN(C)CC4)cc(C(F)(F)F)c3)[nH]c2c1 [5a, 5-methyl-N-(2-(3-(4-methylpiperazin-1-yl)-5-(trifluoromethyl)phenyl)-1H-benzo[d]imidazole-5-yl) isoxazole-4-carboxamide]
- inhibition at 10 µM ([1]; read-out: % Inhibition FMS): 0%
- inhibition at 10 µM [2]: 8.47%
- inhibition at 10 µM [3]: 88.5%
- IC50 [4]: 0.495 µM
- inhibition at 10 µM ([4]; read-out: % Inhibition FLT3): 90%

SMILES: Cc1oncc1C(=O)Nc1ccc2[nH]c(-c3cc(N4CCOCC4)cc(C(F)(F)F)c3)nc2c1 [5b]
- IC50 ([4]; read-out: IC50 (µM) FLT3, enzymatic activity, Table 1, NA not defined): 7.94 µM

SMILES: Cc1oncc1C(=O)Nc1ccc2[nH]c(-c3ccc(N4CCOCC4)c(C(F)(F)F)c3)nc2c1 [5c]
- IC50 [4]: ~10 µM

SMILES: Cc1cn(-c2cc(-c3nc4cc(NC(=O)c5cnoc5C)ccc4[nH]3)cc(C(F)(F)F)c2)cn1 [5d]
- IC50 [4]: 2.33 µM
- times more potent than 5f against FLT3 [4]: 6–8 times

SMILES: Cc1oncc1C(=O)Nc1ccc2[nH]c(-c3cc(-n4cncc4C)cc(C(F)(F)F)c3)nc2c1 [5e]
- IC50 [1]: 9.98 µM
- IC50 [4]: 1.62 µM
- times more potent than 5f against FLT3 [4]: 6–8 times

SMILES: Cc1oncc1C(=O)Nc1ccc2[nH]c(-c3cc(-n4ccnc4C)cc(C(F)(F)F)c3)nc2c1 [5f]
- IC50 [4]: 13.4 µM

SMILES: Cc1oncc1C(=O)Nc1cccc2[nH]c(-c3cc(N4CCN(C)CC4)cc(C(F)(F)F)c3)nc12 [6a]
- IC50 [4]: 2.25 µM

SMILES: Cc1oncc1C(=O)Nc1cccc2[nH]c(-c3ccc(N4CCOCC4)c(C(F)(F)F)c3)nc12 [6b]
- IC50 [4]: 13.9 µM

SMILES: Cc1cn(-c2cc(-c3nc4c(NC(=O)c5cnoc5C)cccc4[nH]3)cc(C(F)(F)F)c2)cn1 [6c]
- IC50 [4]: 6.2 µM

SMILES: CC(C)(C)c1cc(NC(=O)Nc2ccc(-c3ccc(N)nc3)cc2)no1 [compound 1]
- IC50 [5]: 0.001 µM
- IC50 [6]: 0.001 µM
